Assay results reported in patent US20240199613A1 (TAKEDA PHARMACEUTICAL COMPANY LIMITED, priority 2021, published 2024).

Assays:
plasma kallikrein = target: T1, plasma kallikrein (Homo sapiens, UniProt P03952); experiment: Neat human plasma assay: contact pathway-activated (FXIIa) plasma, PFR-AMC substrate; assay type: biochemical; conditions: citrated human plasma (78% final), 10 nM human FXIIa, 100 μM PFR-AMC, room temperature
T1 construct: from tissue; host or cells: sodium citrate collected human plasma (78% final)
T1 sequence (P03952 391-638 limits assumed): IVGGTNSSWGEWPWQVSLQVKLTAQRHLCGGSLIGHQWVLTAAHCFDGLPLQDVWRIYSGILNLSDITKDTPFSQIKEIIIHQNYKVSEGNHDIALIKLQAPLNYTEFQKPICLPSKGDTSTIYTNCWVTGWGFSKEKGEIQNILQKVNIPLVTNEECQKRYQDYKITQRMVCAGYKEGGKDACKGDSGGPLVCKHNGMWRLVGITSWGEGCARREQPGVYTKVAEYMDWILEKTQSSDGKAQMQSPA
T1 sequence (P03952 20-390 partner limits assumed): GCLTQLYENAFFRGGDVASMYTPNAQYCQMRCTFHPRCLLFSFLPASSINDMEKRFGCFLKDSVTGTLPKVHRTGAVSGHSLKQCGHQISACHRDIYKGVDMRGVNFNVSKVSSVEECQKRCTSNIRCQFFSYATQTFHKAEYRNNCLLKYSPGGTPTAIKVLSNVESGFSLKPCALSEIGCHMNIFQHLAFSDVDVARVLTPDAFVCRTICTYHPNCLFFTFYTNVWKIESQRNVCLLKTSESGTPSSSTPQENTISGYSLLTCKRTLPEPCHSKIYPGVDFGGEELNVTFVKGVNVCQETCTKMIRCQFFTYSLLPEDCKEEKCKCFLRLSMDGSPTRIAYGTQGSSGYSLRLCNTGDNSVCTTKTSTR
How it was run: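 Compounds spiked into citrated human or rat plasma (78% final), or plasma taken from orally or IV dosed rats, activated with 10 nM human FXIIa; 100 μM PFR-AMC cleavage read at 360/480 nm for 5 min, room temperature. Rates vs concentration fit to 4-parameter IC50/IC90 equation.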

[1] = target: human activated kallikrein enzyme (Homo sapiens, UniProt P03952); experiment: Inhibition of activated plasma kallikrein, fluorogenic peptide substrate (PFR-AMC) assay, 500 pM enzyme format; assay type: biochemical; conditions: 500 pM activated kallikrein, 300 uM PFR-AMC, 30 min preincubation, 10 min reaction, room temperature; read-out: Primary Dose Response Assay: Average EC50
Chain of human activated kallikrein enzyme (P03952 391-638 limits assumed): as the sequence (P03952 391-638 limits assumed) above
Chain of human activated kallikrein enzyme (P03952 20-390 partner limits assumed): as the sequence (P03952 20-390 partner limits assumed) above
How it was run: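 500 pM enzyme preincubated 30 min at room temperature with inhibitor in 20 mM Tris pH 7.5, 150 mM NaCl, 1 mM EDTA, 0.1% PEG-400, 0.1% Triton X-100. Reaction started with 300 uM PFR-AMC and run 10 min at room temperature. Fluorescence read at 380 nm excitation/460 nm emission.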

SMILES	IC90 (plasma kallikrein) [nM]	EC50 [1] [nM]
Cc1ccnc([C@H]2C[C@@H]2c2cc(N3CC4(COC4)C3)c3ccc(N(C)Cc4cn5cc(C6CC6)cc(N6CC(=O)N(C)C6=O)c5n4)cc3n2)n1 [Example 98, 1-(6-cyclopropyl-2-((methyl(2-((1S,2S)-2-(4-methylpyrimidin-2-yl)cyclopropyl)-4-(2-oxa-6-azaspiro[3.3]heptan-6-yl)quinolin-7-yl)amino)methyl)imidazo[1,2-a]pyridin-8-yl)-3-methylimidazolidine-2,4-dione]	≤ 400	≤ 1
Oc1cc([C@H]2C[C@@H]2c2cccc(Cl)c2)nc2cc(NCc3cn4cc(C5CC5)ccc4n3)ccc12 [Example 51, 2-((1S,2S)-2-(3-chlorophenyl)cyclopropyl)-7-(((6-cyclopropylimidazo[1,2-a]pyridin-2-yl)methyl)amino)quinolin-4-ol]	1500 to 10000	1 to 10
CN1C(=O)CN(c2cc(C3CC3)cn3cc(CNc4ccc5c(=O)cc([C@H]6C[C@@H]6c6cccc(Cl)c6)[nH]c5c4)nc23)C1=O (racemic) [Example 5, rac-1-(2-(((2-((1S*,2S*)-2-(3-chlorophenyl)cyclopropyl)-4-oxo-1,4-dihydroquinolin-7-yl)amino)methyl)-6-cyclopropylimidazo[1,2-a]pyridin-8-yl)-3-methylimidazolidine-2,4-dione]	1500 to 10000	1 to 10
Cc1ccnc([C@H]2C[C@@H]2c2cc(N3CC4(COC4)C3)c3ccc(NCc4cc5cc(C6CC6)cc(N6CC(=O)N(C)C6=O)n5n4)cc3n2)n1 [Example 107, 1-(5-cyclopropyl-2-(((2-((1S,2S)-2-(4-methylpyrimidin-2-yl)cyclopropyl)-4-(2-oxa-6-azaspiro[3.3]heptan-6-yl)quinolin-7-yl)amino)methyl)pyrazolo[1,5-a]pyridin-7-yl)-3-methylimidazolidine-2,4-dione]	≤ 400	≤ 1
COc1cc([C@H]2C[C@@H]2c2nccc(C)n2)nc2cc(NCc3cn4cc(C5CC5)ccc4n3)ccc12 (racemic) [Example 20, rac-N-((6-cyclopropylimidazo[1,2-a]pyridin-2-yl)methyl)-4-methoxy-2-((1S*,2S*)-2-(4-methylpyrimidin-2-yl)cyclopropyl)quinolin-7-amine]	10000 to 22000	1 to 10
Cc1ccnc([C@H]2C[C@@H]2c2cc(NCC(C)(C)O)c3ccc(OCc4cn5cc(C6CC6)cc(N6CC(=O)N(C)C6=O)c5n4)cc3n2)n1 [Example 97, 1-(6-cyclopropyl-2-(((4-((2-hydroxy-2-methylpropyl)amino)-2-((1S,2S)-2-(4-methylpyrimidin-2-yl)cyclopropyl)quinolin-7-yl)oxy)methyl)imidazo[1,2-a]pyridin-8-yl)-3-methylimidazolidine-2,4-dione]	≤ 400	≤ 1
Cc1ccnc([C@H]2C[C@@H]2c2cc(NCC(C)(C)O)c3ccc(NCc4cn5cc(C6CC6)cc(N6CC(=O)N(C)C6=O)c5n4)cc3n2)n1 [Example 38, 1-(6-cyclopropyl-2-(((4-((2-hydroxy-2-methylpropyl)amino)-2-((1S,2S)-2-(4-methylpyrimidin-2-yl)cyclopropyl)quinolin-7-yl)amino)methyl)imidazo[1,2-a]pyridin-8-yl)-3-methylimidazolidine-2,4-dione]	≤ 400	≤ 1
Cc1ccnc([C@H]2C[C@@H]2c2cc(N3CC4(COC4)C3)c3ccc(OCc4cn5cc(C6CC6)cc(N6CC(=O)N(C)C6=O)c5n4)cc3n2)n1 [Example 43, 1-[6-cyclopropyl-2-[[2-[(1S,2S)-2-(4-methylpyrimidin-2-yl)cyclopropyl]-4-(2-oxa-6-azaspiro[3.3]heptan-6-yl)-7-quinolyl]oxymethyl]imidazo[1,2-a]pyridin-8-yl]-3-methyl-imidazolidine-2,4-dione]	≤ 400	≤ 1
Cc1ccnc([C@H]2C[C@@H]2C2=NS(=O)(=O)c3ccc(NCc4cn5cc(C6CC6)cc(F)c5n4)cc3N2)n1 [Example 105, 6-(((6-cyclopropyl-8-fluoroimidazo[1,2-a]pyridin-2-yl)methyl)amino)-3-((1S,2S)-2-(4-methylpyrimidin-2-yl)cyclopropyl)-4H-benzo[e][1,2,4]thiadiazine 1,1-dioxide]	≤ 400	≤ 1
Cc1ccnc([C@H]2C[C@@H]2c2cc(N(C)C)c3ccc(NCc4cn5cc(C6CC6)cc(N6CC(=O)N(C)C6=O)c5n4)cc3n2)n1 (racemic) [Example 29, rac-1-(6-cyclopropyl-2-(((4-(dimethylamino)-2-((1S*,2S*)-2-(4-methylpyrimidin-2-yl)cyclopropyl)quinolin-7-yl)amino)methyl)imidazo[1,2-a]pyridin-8-yl)-3-methylimidazolidine-2,4-dione]	≤ 400	≤ 1
Cc1cc(N2CC(=O)N(C)C2=O)c2nc(COc3ccc4c(N5CC6(COC6)C5)cc([C@H]5C[C@@H]5c5nccc(C)n5)nc4c3)cn2c1 [Example 96, 3-methyl-1-(6-methyl-2-(((2-((1S,2S)-2-(4-methylpyrimidin-2-yl)cyclopropyl)-4-(2-oxa-6-azaspiro[3.3]heptan-6-yl)quinolin-7-yl)oxy)methyl)imidazo[1,2-a]pyridin-8-yl)imidazolidine-2,4-dione]	≤ 400	≤ 1
Cc1ccnc([C@H]2C[C@@H]2c2cc(=O)c3cnc(NCc4cn5cc(C6CC6)cc(N6CC(=O)N(C)C6=O)c5n4)cc3[nH]2)n1 (racemic) [Example 10, rac-1-(6-cyclopropyl-2-(((2-((1S*,2S*)-2-(4-methylpyrimidin-2-yl)cyclopropyl)-4-oxo-1,4-dihydro-1,6-naphthyridin-7-yl)amino)methyl)imidazo[1,2-a]pyridin-8-yl)-3-methylimidazolidine-2,4-dione]	≤ 400	≤ 1
COc1cc([C@H]2C[C@@H]2c2nccc(C)n2)nc2cc(NCc3cn4cc(C5CC5)cc(N5CC(=O)N(C)C5=O)c4n3)ccc12 (racemic) [Example 21, rac-1-(6-cyclopropyl-2-(((4-methoxy-2-((1S*,2S*)-2-(4-methylpyrimidin-2-yl)cyclopropyl)quinolin-7-yl)amino)methyl)imidazo[1,2-a]pyridin-8-yl)-3-methylimidazolidine-2,4-dione]	1500 to 10000	≤ 1
Cc1ccnc([C@H]2C[C@@H]2c2cc(N3CCC3)c3ccc(NCc4cn5cc(C6CC6)cc(N6CC(=O)N(C)C6=O)c5n4)cc3n2)n1 [Example 30, 1-(2-(((4-(azetidin-1-yl)-2-((1S,2S)-2-(4-methylpyrimidin-2-yl)cyclopropyl)quinolin-7-yl)amino)methyl)-6-cyclopropylimidazo[1,2-a]pyridin-8-yl)-3-methylimidazolidine-2,4-dione]	≤ 400	≤ 1
CN1C(=O)CN(c2cc(C3CC3)cn3cc(CNc4ccc5c(=O)[nH]c([C@H]6C[C@@H]6c6cccc(Cl)c6)nc5c4)nc23)C1=O [Example 6, 1-(2-(((2-((1S,2S)-2-(3-chlorophenyl)cyclopropyl)-4-oxo-3,4-dihydroquinazolin-7-yl)amino)methyl)-6-cyclopropylimidazo[1,2-a]pyridin-8-yl)-3-methylimidazolidine-2,4-dione]	1500 to 10000	1 to 10
